Assay results published in US11174286B2, “Inhibitors of NF κ-B activity for treatment of diseases and disorders” (priority 2014, dated 2021).
Non-standard residues stand in square brackets, D forms with d. No end group written: not given here.

Assays:
[1] = test system: smad2; assay: Phospho-Smad2 sandwich ELISA in MCF-7 cells (lack functional TBRII); format: cell-based; conditions: for phosphorylation of smad2: MCF-7 cells (do not express TBRII)
Experimental: (§1) Phosphorylation of smad2 was determined by Enzyme-Linked Immunosorbent Assay (ELISA) using a kit obtained from a commercial source. The Phospho-Smad2 Sandwich ELISA Kit is a solid phase sandwich enzyme-linked immunosorbent assay (ELISA) that recognizes endogenous levels of phospho-Smad2 (Ser465/467) and Smad3 (Ser423/425) proteins. A Smad2/3 Mouse Antibody has been coated on the microwells. After incubation with cell lysates, Smad2/3 proteins (phospho and nonphospho) are captured by the coated antibody. Following extensive washing, a Phospho-Smad2 (Ser465/467)/Smad3 (Ser423/425) Detection Antibody is added to detect captured phospho-Smad2 (Ser465/467) and phospho-Smad3 (Ser423/425) proteins. Anti-rabbit IgG, HRP-linked Antibody is then used to recognize the bound detection antibody. HRP substrate, TMB, is added to develop color. The magnitude of the absorbance for this developed color is proportional to the quantity of phospho-Smad2 (Ser465/467) and phospho-Smad3 (Ser423/425) proteins.

[2] = test system: chemically induced tumor in hamster cheek; assay: DMBA-induced oral tumor in hamster buccal pouch, topical peptide gel; format: in vivo, Syrian hamsters; conditions: for histology of DMBA-treated tissue after peptide treatment: hamster cheek, FIG. 6C
Experimental: A peptide inhibitor of NF κB activity disclosed herein was tested for treatment of induced oral tumors. Male Syrian hamsters aged 8 to 10 weeks weighing between 100 and 110 g were used. The animals were fed a standard pellet diet and water ad libitum, and were maintained in accordance with applicable ethical and institutional guidelines. The animals were randomized into 10 groups of 8 animals each, and the right buccal pouches of hamsters in groups 1-5 were painted with 0.5% 7,12-dimethylbenz[a]anthracene (DMBA) in liquid paraffin three times a week for 12 weeks.
Mucoadhesive gels containing peptides were prepared by slowly adding Noveon AA1 (0.675% w/w) and Carbopol 971P NF (0.788% w/w) to purified water. The mixture was stirred at 1,025 rpm for one hour to allow full rehydration. Then 0.9% w/w glycerine, 2-phenoxyethanol, benzyl alcohol, and EDTA were added, followed by mixing at 875 rpm for one hour at room temperature. Finally, the desired peptide was added to the gel, and the gel mixed at 875 rpm for one hour to homogenize the gel (Kavitha et al., Biochimie 102:56-67 (2014); Mallery et al., Pharm Res. 24(4):728-737 (2007)).
Hamsters in Group 1 received no further treatment. For hamsters in Groups 2 and 3, peptide gel was applied topically to the right buccal pouches of the hamsters from the 12th to the 18th week daily at concentrations of 10 microgram/ml (2.35 microgram dosage of peptide per application) and 100 microgram/ml (23.5 microgram dosage of peptide per application) respectively. Another group of animals painted with liquid paraffin alone served as control. The experiment was terminated after 18 weeks and all animals were sacrificed by cervical dislocation after an overnight fast.

[3] = test system: carrageenan-induced hyperalgesia in rat paw; assay: Carrageenan-induced hyperalgesia in rat paw (modified Randell-Selitto paw withdrawal method); format: in vivo, albino rats; conditions: 3 mg carrageenan, 70 nanogram peptide
Experimental: To establish the efficacy of the disclosed peptide inhibitors of NF-κB activity in analgesia, hyperalgesia was induced in rat paws with injections of carrageenan. The experiment is as described in Example 5. Injection of carrageenan in a hind paw of rats produced severe hyperalgesia. […] Only the results with peptide SEQ ID NO:042 are shown here.
The ability of the disclosed peptides to affect nociception was determined using a modification of the Randell-Selitto paw withdrawal method. Groups (n=6) of healthy albino rats were injected in the paw with 3 mg carrageenan alone in phosphate buffered saline (PBS). […] As inflammation became obvious (15 min) in carrageenan-treated animals, test animals were injected with 70 nanogram of peptide SEQ ID NO:001, or peptide SEQ ID NO:042 in PBS. The animals are allowed to walk on a metal grid before and after injecting the drugs and the observations were noted. The scoring system was based on normal gait=1, marked limping=0.5, and three legged gait=0. The scores are transformed into percent analgesia and subjected to statistical analysis. The two peptides gave very similar results. The results shown in FIG. 10 are from animals treated with peptide SEQ ID NO:042.

[4] = test system: carrageenan-induced inflammation in rat paw; assay: Carrageenan-induced paw edema (plethysmometer); format: in vivo, albino rats
Source text: INFLAMMATORY DISEASES AND FIBROTIC DISEASES: NF-κB is a prototypical proinflammatory signaling pathway, based on the activation of NF-κB by proinflammatory cytokines such as interleukin 1 (IL-1) and tumor necrosis factor a (TNF-α), and the subsequent role of NF-κB in the expression of other proinflammatory genes including cytokines, chemokines, and adhesion molecules. Inhibition of NF-κB can be expected to result in amelioration of inflammation. This was confirmed experimentally using peptide SEQ ID NO:042 in a standard model of carrageenan-induced inflammation in rat paw. This method measures acute inflammation induced by injection of carrageenan (Sakat et al., Inflammation 37(1):1-9 (2014)) and is used extensively to study antiinflammatory properties of drugs. Carrageenan is known to activate NF-κB (Bhattacharyya et al., Mediators of Inflammation, Vol. 2013, Article ID 397642; Bhattacharyya et al., American Journal of Physiology 301(3):G475-G486 (2011); Ellis et al., Ann. Rheum. Dis. 59:303-307 (2000); Pierce et al., J. Biol. Chem. 272:21096-21103 (1997)). Example 6 and FIG. 11 show the high efficacy of peptide SEQ ID NO:042 in alleviating edema and inflammation. […] Treatment of inflammation requires the subsidence of TNF-α and NF-κB pathways, which are part of the action of the disclosed peptides.
Groups (n=6) of healthy albino rats were injected in the paw with 3 mg carrageenan alone in phosphate buffered saline (PBS). […] As inflammation became obvious (15 min) in carrageenan-treated animals, test animals were injected with 70 nanogram of peptide SEQ ID NO:001, or peptide SEQ ID NO:042 in PBS. A plethysmometer was used to measure paw edema at 0, 0.5, 1.0, 2.0, 3.0, 6.0, 12.0, and 24 hours after injections. […] In contrast, animals not receiving peptide continued to show significant inflammation at all time points.

[5] = test system: oral cancer cell line AW 13516; assay: Cell cycle analysis by flow cytometry (propidium iodide); format: cell-based
Experimental: Cell cycle analysis was performed in oral cancer cell line AW 13516 after treatment with TGF-β alone, peptide alone or in combination. Cell cycle analysis was carried out using flow cytometry (Guava Technologies) using reagent kits provided by the instrument maker. The samples were prepared after propidium iodide staining and flow cytometric analysis was performed. TGF-β causes G1 arrest in cells as expected. The disclosed peptides in contrast markedly shortened the G1 phase and prolonged the S-phase, promoting a more faithful synthesis of DNA prior to cell division. Thus, the disclosed peptides have effects which differ from the effects of growth factors.

[6] = test system: NF κB; assay: NF κB luciferase reporter assay (dual luciferase) in transfected SiHa cells; format: cell-based; conditions: 24 hours of treatment
Experimental: SiHa cells (ATCC HTB-35) were seeded in the wells of a 96 well plate at 25,000 cells/well. The cells were transfected with the respective luciferase construct (p-SBE4, p-ARE-Luc in combination with FAST-1, p-NF κB) using Lipofectamine 2000 reagent (Invitrogen Technologies Inc.), as per the manufacturer's instructions. 18 hours post transfection; the cells were subjected to the respective treatments such as TGF-β, TNF-α, and the peptides. After 24 hours of treatment, the plates were removed from the incubator; medium from the cells was discarded. The wells were filled with 50 μl of PLB (passive lysis buffer) provided along with the Promega dual luciferase assay kit. The luciferase assay was performed as per the supplier's instruction manual, after transferring the lysates to a white plate for luminescence measurements. Expression of luciferase, and measurement of the resulting luminescence, thus provides a measurement of the extent of expression of NF-κB.
As per the data in FIG. 2, the disclosed peptides inhibit TNF-α-activation of NF-κB. As per the data in FIG. 3, the disclosed peptide LFAP[D]EA (SEQ ID NO:013) inhibits both TNF-α-induced and constitutive activation of NF-κB. The ratio between the firely/renilla luciferase was used to compare TNF-α induced activation of NF-κB over constitutive NF-κB activity.

[7] = test system: smad2; assay: Phospho-Smad2 sandwich ELISA in HepG2 cells; format: cell-based; conditions: HepG2 cells (TBRII and TBRI present)
Experimental: TGF-β signaling requires both receptors.
as §1

[8] = test system: p65 subunit of NF κB; assay: Western blot for p65 (NF κB) phosphorylation in SiHa cells; format: cell-based; conditions: Western blot (FIG. 4)
[9] = test system: human dermal fibroblasts; assay: Gene microarray analysis of gene expression; format: cell-based; conditions: 1.0 micromolar peptide
Source text: (§2) NF κB inhibitor peptide SEQ ID NO: 010 down-regulates expression of genes known to be associated with the pathobiological action of NF κB and TNF α. […] The upregulation of certain target genes by the transcription factor NF κB is a major contributory factor in diseases and disorders attributed to the activation of NF κB. The downregulation of these genes by the NF κB inhibitor peptides can be expected to provide prophylaxis and therapy for such disorders. (The downregulation of some of these genes was confirmed in vivo in a study to examine the efficacy of NF κB inhibitor peptide, SEQ ID NO: 010.) Certain genes were also tested in a rodent squamous cell carcinoma model, by PCR and by immunoblots (mRNA levels were monitored by PCR and the corresponding protein levels were monitored by immunoblots).

[10] = In vivo study confirming gene downregulation
Source text: as §2

Compound: NC(=O)c1ccc(-c2nc(-c3ccc4c(c3)OCO4)c(-c3ccccn3)[nH]2)cc1 [SB431542, 4-[4-(1,3-benzodioxol-5-yl)-5-(2-pyridinyl)-1H-imidazol-2-yl]benzamide, reference compound]
- effect on peptide-induced smad2 phosphorylation ([1]; MCF-7 cells, with peptide LIANAK): did not prevent smad2 phosphorylation

Compound: ANVAENA [SEQ ID NO:042]
- histology of DMBA-treated tissue after peptide treatment [2]: an effect at the microscopic level
- tumor growth in hamster cheek ([2]; topical, six weeks, 100 microgram/ml (23.5 microgram per application), after DMBA): marked inhibition of tumor growth
- nociception (hyperalgesia) [3]: markedly ameliorated nociception
- anti-inflammatory efficacy relative to that reported for celecoxib ([4]; compared with literature value for celecoxib): approximately 103 times
- edema and inflammation at 2 h ([4]; rat paw, 3 mg carrageenan, 70 nanogram peptide, 2 h): significant decrease in edema and inflammation
- inflammation by 3.0 h ([4]; rat paw, 3 mg carrageenan, 70 nanogram peptide, 3.0 h): subsided almost completely
- inflammation up to 24 h post injection ([4]; rat paw, 3 mg carrageenan, 70 nanogram peptide, up to 24 h): no inflammation was noted
- % CELLS IN G1 Phase [5]: 62.73%
- % CELLS IN Go Phase [5]: 2.02%
- % CELLS IN M Phase [5]: 19.10%
- % CELLS IN S Phase [5]: 16.14%

Compound: LFAP[D]EA (LFAP[dE]A) [SEQ ID NO:013]
- inhibition of constitutive activation of NF-κB ([6]; Renilla luciferase): inhibits
- inhibition of TNF-α-induced activation of NF-κB ([6]; firefly luciferase): inhibits
- % CELLS IN G1 Phase [5]: 62.05%
- % CELLS IN Go Phase [5]: 2.87%
- % CELLS IN M Phase [5]: 14.86%
- % CELLS IN S Phase [5]: 20.21%

Compound: LIANAK [SEQ ID NO:060]
- phosphorylation of smad2 [7]: induce phosphorylation
- phosphorylation of smad2 [1]: causing the phosphorylation of smad2

Compound: LIAPEA [SEQ ID NO:061]
- % CELLS IN G1 Phase [5]: 60.05%
- % CELLS IN Go Phase [5]: 2.33%
- % CELLS IN M Phase [5]: 18.59%
- % CELLS IN S Phase [5]: 19.03%

Compound: LIAP[D]EA (LIAP[dE]A) [SEQ ID NO:014]
- % CELLS IN G1 Phase [5]: 62.69%
- % CELLS IN Go Phase [5]: 3.19%
- % CELLS IN M Phase [5]: 13.52%
- % CELLS IN S Phase [5]: 19.78%

Compound: LWAEAK [SEQ ID NO:008]
- inhibition of phosphorylation of the p65 subunit of NF κB [8]: inhibition of phosphorylation

Compound: NVAENA [SEQ ID NO:010]
- histology of DMBA-treated tissue after peptide treatment [2]: histology is closer to normal histology after treatment
- expression of genes associated with the pathobiological action of NF κB and TNF α [9]: down-regulates
- downregulation of some of these genes in vivo [10]: confirmed

Compound: SEQ ID NO:057: peptide of FIG. 8B (SEQ ID NOS:041 through 069), disclosed in U.S. Pat. Nos. 5,661,127, 5,780,436 and 6,638,912; sequence not printed (LIAGEG)
- % CELLS IN G1 Phase [5]: 52.59%
- % CELLS IN Go Phase [5]: 14.59%
- % CELLS IN M Phase [5]: 11.18%
- % CELLS IN S Phase [5]: 21.63%

Compound: TGF-β
- phosphorylation of smad2 [7]: induce phosphorylation
- phosphorylation of smad2 [1]: do not respond
- % CELLS IN G1 Phase [5]: 79.83%
- % CELLS IN Go Phase [5]: 8.32%
- % CELLS IN M Phase [5]: 8.23%
- % CELLS IN S Phase [5]: 3.62%

Compound: TNWAEN [SEQ ID NO:015]
- inhibition of phosphorylation of the p65 subunit of NF κB [8]: inhibition of phosphorylation

Compound: TWAPES [SEQ ID NO:016]
- inhibition of phosphorylation of the p65 subunit of NF κB [8]: inhibition of phosphorylation

Compound: TWSPEL [SEQ ID NO:017]
- inhibition of phosphorylation of the p65 subunit of NF κB [8]: inhibition of phosphorylation

Compound: YMAPEV [SEQ ID NO:001]
- nociception (hyperalgesia) [3]: markedly ameliorated nociception
- paw edema pattern compared with peptide SEQ ID NO:042 ([4]; rat paw, 70 nanogram peptide, 0 to 24 hours): nearly identical patterns
